Measured values taken from patent publication US20230285347A1, “Preterm Labour with Prostaglandin E2 Receptor Agonists” (IMPERIAL COLLEGE INNOVATIONS LIMITED, priority 2020, published 2023).
“Also recorded” adds a separate entry of the source.

What was measured:
Assay type in all cases: cell-based
[1] = target: T1, human FLAG-EP2 (Homo sapiens, UniProt P43116); assay: Intracellular Ca2+ release in HEK 293 cells stably expressing EP2 (Fluo-4, confocal; Gαq/11 readout); settings: HEK 293 EP2 cells; butaprost 10 μM, AH13205 10 μM, PGN9856i 100 nM; vs vehicle; FIG. 3
T1 construct: FLAG; expressed in transfected cells
T1 sequence (P43116 whole entry): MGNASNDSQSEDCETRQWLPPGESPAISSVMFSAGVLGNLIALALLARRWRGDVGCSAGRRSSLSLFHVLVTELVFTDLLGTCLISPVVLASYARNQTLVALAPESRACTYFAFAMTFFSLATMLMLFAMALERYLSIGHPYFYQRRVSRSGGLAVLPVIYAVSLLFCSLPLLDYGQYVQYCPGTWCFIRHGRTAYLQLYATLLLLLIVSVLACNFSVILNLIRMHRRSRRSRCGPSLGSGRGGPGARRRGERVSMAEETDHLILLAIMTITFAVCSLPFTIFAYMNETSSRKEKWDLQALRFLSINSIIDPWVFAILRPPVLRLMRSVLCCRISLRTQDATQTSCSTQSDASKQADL
Method: To measure Gαq/11 activation, HEK 293 cells stably expressing human FLAG-EP2 were pre-labelled with a Ca2+ indicator dye and acutely stimulated with each ligand.
HEK 293 cells, prepared following the same methodology as outlined in Example 1, were seeded onto Mattek dishes with 14 mm by 1.5 mm glass coverslips. Cells were incubated with Fluo-4am Ca2+ indicator (ThermoFisher) as per manufacturer's instructions. […]. Time-series images were acquired using a Leica SP5 confocal microscope, Leica LAS AF image acquisition software and a 488 nm excitation laser. HEK cells were imaged using a 10× dry objective. EP2 agonists (butaprost 10 μM, AH13205 10 μM or PGN9856i 100 nM) were added following measurement of basal fluorescence. Raw files were analysed using Fiji Time series analyser plugin to find the maximal fluorescent intensity, which was then averaged across cells in each condition.
The maximal fluorescence intensity was measured by live confocal microscopy.

[2] = target: T2, EP2 (Homo sapiens, UniProt P43116); assay: PGE2 release by ELISA in primary myometrial cells; settings: 6 hours, butaprost 10 μM, PGN9856i 100 nM, without OT, FIG. 7, FIG. 12
T2 construct: primary human myocytes cultured from term pregnant, non-labouring, myometrium; endogenous in cells; host or cells: primary human myometrial cells (myocytes) cultured from pregnant myometrium
T2 sequence (P43116 whole entry): as above
Description: Tissue culture media collected and used for ELISA. Data shown as mean±SEM from at least 3 independent experiments. One-way ANOVA with Dunnet's multiple comparison post-hoc test: *p<0.05, **p<0.01. PGN9856i is unable to elicit PGE2 release in primary myometrial cells.
(§1) In the myometrium EP2 is an important regulator of parturition. To assess if PGN9856i, butaprost and AH13205 induce similar second messenger profiles in the myometrium as HEK 293 cells, primary human myocytes cultured from term pregnant, non-labouring, myometrium, were treated with each ligand and intracellular cAMP, calcium and PGE2 release was measured.
Myometrial tissue was acquired at St. Mary's hospital, Queen Charlotte and Chelsea hospital and Charing Cross hospital, London. Tissue was obtained from women provided with informed written consent with the approval from the Riverside Research Ethics Committee (RREC 3357, 1997-5089, 19/LO/1657) and experiments were carried out under the committee's guidelines and recommendations. […]
Myometrial cells were treated for 6-hours with EP2 agonist (butaprost 10 μM, AH13205 10 μM or PGN9856i 100 nM) or DMSO with/without 1-hour OT (100 nM) pre-treatment. […] Samples were defrosted at room temperature and vortexed before quantification of IL-6 concentrations via ELISA as per manufacturer's instructions (Enzo Lifesciences).

[3] = target: T2, EP2; assay: cAMP signalling in myometrial cells from different labouring groups, EP2 agonist; settings: butaprost 10 μM, FIG. 8
Method: L=non-labouring, L+E=early stage spontaneous labour, L+L=late stage spontaneous labour, L+SE=early stage induced labour, L+SL=late stage induced labour. Myometrial cells from different labouring groups were treated with IBMX (5 minutes, 0.5 mM) before 1 minute stimulation with IBMX with/without butaprost (10 μM) or isoproterenol (10 μM). cAMP concentrations were normalised to protein. Data shown as mean±SEM, L−n=4. All other groups n=5. Each treatment compared to L− using one-way ANOVA with Dunnett's multiple comparison post-hoc test: **p<0.01, ***p<0.001, ****p<0.0001.
(§2) Myometrial tissue was acquired at St. Mary's hospital, Queen Charlotte and Chelsea hospital and Charing Cross hospital, London. Tissue was obtained from women provided with informed written consent with the approval from the Riverside Research Ethics Committee (RREC 3357, 1997-5089, 19/LO/1657) and experiments were carried out under the committee's guidelines and recommendations. Tissues were obtained from term (38+0-40 weeks gestation) pregnant women undergoing elective caesarean from the upper margin of the incision made at the lower segment of the uterus, before or after the onset of labor. Tissues taken from women in early labour (<3 cm cervical dilation) or late labour (>3 cm cervical dilation) with/without induction with syntocinon, an oxytocin analogue. Tissue was only taken from uncomplicated, singleton pregnancies.
Tissue was stored at 4° C. in phosphate buffered saline until fine dissection with scalpels and dissociation at 37° C. for 1 hour in a sterile-filtered mix of Dulbecco's modified Eagle's medium (DMEM) (Sigma Aldrich)/Ham's F-12 Nutrient Mixture (Sigma Aldrich) and serum-free DMEM (Sigma Aldrich) (1:1 v/v) containing collagenase 1A (Sigma Aldrich)(1 mg/ml), collagenase X (Sigma Aldrich)(1 mg/ml) and bovine serum albumin (Sigma Aldrich) (2 mg/ml). Dissociation was ended using DMEM 10% fetal bovine serum (Sigma Aldrich) and cell suspension was obtained using a 40-μm cell strainer before centrifugation at 3000 rpm for 5 minutes. […]

[4] = target: T2, EP2; assay: Intracellular calcium in myometrial cells with/without oxytocin pre-treatment; settings: OT pre-treatment 1 hour, 100 nM; butaprost 10 μM, AH13205 10 μM, PGN9856i 100 nM; FIG. 11
Method: Intracellular calcium response in myometrial cells with/without OT pre-treatment (1 hour, 100 nM) stimulated with butaprost (10 μM), AH13205 (10 μM) or PGN9856i (100 nM). Data are the mean of the maximum fluorescence intensity for each cell measured normalised to background (F-FO). Shown as fold-change over butaprost response. One-way ANOVA with Dunnett's multiple comparison post-hoc test: ##p<0.01. One-sample t-test: *p<0.05.

[5] = target: T2, EP2; assay: Intracellular calcium response in primary myometrial cells; settings: PGN9856i 100 nM, FIG. 6
Description: One-way ANOVA with Dunnet's multiple comparison post-hoc test: **p<0.01, and (B) calcium intensity traces over time from representative cells from (A). PGN9856i is unable to elicit intracellular calcium release in primary myometrial cells.
as §1
as §2, with “Tissue was only taken from uncomplicated, singleton pregnancies.” left out

SMILES	intracellular Ca2+ release (maximal fluorescence intensity) [1]	PGE2 release [2]	agonist-induced cAMP signalling in labouring groups vs non-labouring ([3]; all labouring groups)	reduction of agonist-stimulated cAMP, non-labouring vs spontaneous early labour ([3]; spontaneous early labour samples) [fold]	reduction of agonist-stimulated cAMP, non-labouring vs spontaneous late labour ([3]; spontaneous late labour samples) [fold]	calcium response with OT pre-treatment [4]	activation of calcium pathway [5]
CCCC1([C@H](O)C/C=C/[C@H]2[C@H](O)CC(=O)[C@@H]2CCCCCCC(=O)OC)CCC1 [butaprost]	enhanced Ca2+ significantly above vehicle	significantly enhanced PGE2 release	significantly attenuated in all labouring groups	2.5	10	significantly enhance the calcium response	
CC(C)OC(=O)COc1cccc(NC(=O)c2cc(-c3cccc(F)c3)ccc2F)c1 [PGN9856i, propan-2-yl 2-(3-{3′,4-difluoro-[1,1′-biphenyl]-3-amido}phenoxy)acetate]	unable to elicit intracellular Ca2+ release	unable to activate; also recorded: unable to cause PGE2 release				unable to elicit a response	unable to activate calcium
